Results reported in ChEMBL document CHEMBL1212705, “Gene expression signatures and small-molecule compounds link a protein kinase to Plasmodium falciparum motility” (Nat Chem Biol, 2008).

How the values were obtained:
[1] = Inhibition of GST-fused Plasmodium falciparum recombinant CDPK1 expressed in Escherichia coli Rosetta 2 assessed as inhibition of [gamma-33P]ATP incorporation into substrate peptide by scintillation counting
Plasmodium falciparum [2] = test: Antiplasmodial activity against Plasmodium falciparum 3D7 after 72 hrs by SYBR green assay; assay type: functional, organism-based; conditions: 3D7, 72 h
Plasmodium falciparum [3] = test: Antiplasmodial activity against Plasmodium falciparum 3D7 by [3H]hypoxanthine incorporation assay; conditions: 3D7, 3 h

`O=C(c1ccc(Nc2nc(Nc3cnc4ccccc4c3)nc3c2ncn3-c2ccccc2)cc1)N1CCCCC1` gave an IC50 [1] of 3850 nM and an EC50 (Plasmodium falciparum [2]) of 101 nM.
For `CCOc1ccc(-n2cnc3c(Nc4ccc(C(=O)N5CCCCC5)cc4)nc(N[C@H]4CC[C@H](N)CC4)nc32)cc1`, the IC50 [1] was 240 nM and the EC50 (Plasmodium falciparum [2]) was 535 nM.
In the case of `O=C(c1ccc(Nc2nc(NCCc3c[nH]cn3)nc3c2ncn3-c2cccc(Cl)c2)cc1)N1CCCCC1`, the IC50 [1] is reported as 626 nM and the EC50 (Plasmodium falciparum [2]) is reported as 352 nM.
For `O=C(c1ccc(Nc2nc(NCCCN3CCOCC3)nc3c2ncn3-c2ccccc2)cc1)N1CCCCC1`, the IC50 [1] was 430 nM and the EC50 (Plasmodium falciparum [2]) was 2990 nM.
With `O=C(c1ccc(Nc2nc(N[C@H]3CC[C@H](O)CC3)nc3c2ncn3-c2cccc(F)c2)cc1)N1CCCCC1` the IC50 [1] was 150 nM and the EC50 (Plasmodium falciparum [2]) was > 10000 nM.
With `N[C@H]1CC[C@H](Nc2nc(Nc3ccc(CN4CCOCC4)cc3)c3ncn(-c4ccccc4)c3n2)CC1` the IC50 [1] was 703 nM and the EC50 (Plasmodium falciparum [2]) was 174 nM.
Compound `N[C@H]1CC[C@H](Nc2nc(Nc3ccc(C(=O)N4CCCCC4)cc3)c3ncn(-c4cccc(OCc5ccccc5)c4)c3n2)CC1` has an IC50 [1] of 4040 nM and an EC50 (Plasmodium falciparum [2]) of 312 nM.
For `N[C@H]1CC[C@H](Nc2nc(Nc3ccc(C(=O)N4CCCCC4)cc3)c3ncn(-c4ccc5c(c4)OCO5)c3n2)CC1`, the IC50 [1] was 342 nM and the EC50 (Plasmodium falciparum [2]) was 400 nM.
With `N[C@H]1CC[C@H](Nc2nc(Nc3ccc(C(=O)N4CCCCC4)cc3)c3ncn(-c4ccc(C(=O)O)cc4)c3n2)CC1` the IC50 [1] was 28 nM and the EC50 (Plasmodium falciparum [2]) was > 10000 nM.
For `CN1CCN(C(=O)c2cccc(Nc3nc(N[C@H]4CC[C@H](N)CC4)nc4c3ncn4-c3ccccc3)c2)CC1`, the IC50 [1] was 6870 nM and the EC50 (Plasmodium falciparum [2]) was 1300 nM.
With `C[C@@H]1CC[C@H]2[C@@H](C)C(=O)O[C@@H]3O[C@@]4(C)CC[C@@H]1[C@]32OO4` [ARTEMISININ] the EC50 (Plasmodium falciparum [3]) was < 10 nM and the EC50 (Plasmodium falciparum [2]) was 28 nM.
With `CCN(CC)CCCC(C)Nc1ccnc2cc(Cl)ccc12` (configuration not stated) [CHLOROQUINE] the EC50 (Plasmodium falciparum [3]) was < 10 nM.
With `CC(C)(C)c1ccc(-n2cnc3c(Nc4ccc(C(=O)N5CCCCC5)cc4)nc(N[C@H]4CC[C@H](N)CC4)nc32)cc1` the IC50 [1] was 3490 nM and the EC50 (Plasmodium falciparum [2]) was 596 nM.
For `N[C@H]1CC[C@H](Nc2nc(Nc3ccc(C(=O)N4CCCCC4)cc3)c3ncn(-c4cccc(C(=O)O)c4)c3n2)CC1`, the IC50 [1] was 71 nM and the EC50 (Plasmodium falciparum [2]) was > 10000 nM.
